Earlier results as cited in patent US20190078102A1, “BIOSYNTHETIC PRODUCTION OF STEVIOL GLYCOSIDES AND PROCESSES THEREFORE” (Conagen-Inc., priority 2017, published 2019).

Conditions: background statement

C=C1C[C@@]23CC[C@H]4[C@@](C)(CCC[C@@]4(C)C(=O)O[C@@H]4O[C@H](CO)[C@@H](O)[C@H](O)[C@H]4O)[C@@H]2CC[C@]1(O[C@@H]1O[C@H](CO)[C@@H](O)[C@H](O)[C@H]1O[C@@H]1O[C@H](CO)[C@@H](O)[C@H](O)[C@H]1O)C3 [stevioside]
times sweeter than sucrose: 100-150 times
